Data from patent US20260200939A1, “MOLECULAR GLUE DEGRADER COMPOUNDS AND USES THEREOF” (Novartis AG, priority 2022, published 2026).

biological target: T1, CDK4 (Homo sapiens, UniProt P11802); assay: CDK4 Degradation Assay, Western blotting; format: cell-based; details: not given
T1 construct: endogenous in cells; host or cells: C33A
Experimental: (§1) C33A cells were purchased from American Type Culture Collection (ATCC) and were cultured in Dulbecco's Modified Eagle Medium (DMEM) containing 10% (v/v) fetal bovine serum (FBS) and maintained at 37° C. with 5% CO2. 22RV1 cells were purchased from the ATCC and were cultured in RPMI-1640 Medium containing 10% (v/v) FBS and maintained at 37° C. with 5% CO2. HEK293T cells were obtained from the UC Berkeley Cell Culture Facility and were cultured in DMEM containing 10% (v/v) FBS and maintained at 37° C. with 5% CO2. K562 cells were obtained from the UC Berkeley Cell Culture Facility and were cultured in Iscove's Modified Dulbecco's Medium (IMDM) containing 10% (v/v) FBS and maintained at 37° C. with 5% CO2. MV-4-11 cells were obtained from the ATCC and were cultured in IMDM containing 10% (v/v) FBS and maintained at 37° C. with 5% CO2. A549 cells were obtained from the ATCC and were cultured in F-12K Medium containing 10% (v/v) FBS and maintained at 37° C. with 5% CO2. Mino cells were obtained from the ATCC and were cultured in RPMI-1640 Medium containing 10% (v/v) FBS and maintained at 37° C. with 5% CO2. LNCaP cells were obtained from the ATCC and were cultured in RPMI-1640 Medium containing 10% (v/v) FBS and maintained at 37° C. with 5% CO2. Unless otherwise specified, all cell culture materials were purchased from Gibco. It is not known whether HEK293T cells are from male or female origin.
(§2) Cells were washed twice with cold PBS, scraped, and pelleted by centrifugation (700 g, 5 min, 4° C.). Pellets were resuspended in PBS, sonicated, clarified by centrifugation (12,000 g, 10 min, 4° C.), and lysate was transferred to new low-adhesion microcentrifuge tubes. Proteome concentrations were determined using BCA assay and lysate was diluted to appropriate working concentrations.
(§3) Proteins were resolved by SDS/PAGE and transferred to nitrocellulose membranes using the Trans-Blot Turbo transfer system (Bio-Rad). Membranes were blocked with 5% BSA in Tris-buffered saline containing Tween 20 (TBS-T) solution for 30 min at RT, washed in TBS-T, and probed with primary antibody diluted in recommended diluent per manufacturer overnight at 4° C. After 3 washes with TBS-T, the membranes were incubated in the dark with IR680- or IR800-conjugated secondary antibodies at 1:10,000 dilution in 5% BSA in TBS-T at RT for 1 h. After 3 additional washes with TBST, blots were visualized using an Odyssey Li-Cor fluorescent scanner. The membranes were stripped using ReBlot Plus Strong Antibody Stripping Solution (EMD Millipore) when additional primary antibody incubations were performed. Antibodies used in this study were CDK4 (Abcam ab108357), Vinculin (Abcam ab129002), GAPDH (Cell Signaling Technology 14C10), RNF126 (Santa Cruz Biotechnology sc-376005), BRD4 (Abcam ab128874), Beta Actin (Cell Signaling Technology 13E5), PDE5 (Abcam ab259945), AR-V7 (Abcam ab273500), c-Abl (Santa Cruz Biotechnology sc-23), SMARCA2 (Abcam ab240648), LRRK2 (Abcam ab133474), BTK (Cell Signaling Technology D3H5), Androgen Receptor (Abcam ab133273).

DC50 [µM]	Structure (SMILES)
> 10	CN(C)C(=O)c1cc2cnc(Nc3ccc(N4CCN(C(=O)/C=C/C(=O)c5ccc(C#N)cc5)CC4)cn3)nc2n1C1CCCC1 [Compound 267, (E)-2-((5-(4-(4-(4-cyanophenyl)-4-oxobut-2-enoyl)piperazin-1-yl)pyridin-2-yl)amino)-7-cyclopentyl-N,N-dimethyl-7H-pyrrolo[2,3-d]pyrimidine-6-carboxamide]
> 10	COc1ccc(C(=O)/C=C/C(=O)N2CCN(c3ccc(Nc4ncc5cc(C(=O)N(C)C)n(C6CCCC6)c5n4)nc3)CC2)c(Cl)c1 [Compound 268, (E)-2-((5-(4-(4-(2-chloro-4-methoxyphenyl)-4-oxobut-2-enoyl)piperazin-1-yl)pyridin-2-yl)amino)-7-cyclopentyl-N,N-dimethyl-7H-pyrrolo[2,3-d]pyrimidine-6-carboxamide]
> 10	COc1ccc(C(=O)/C=C/C(=O)N[C@H]2C[C@@H](Nc3ccc(Nc4ncc5cc(C(=O)N(C)C)n(C6CCCC6)c5n4)nc3)C2)cc1 [Compound 269, 7-cyclopentyl-2-((5-(((1s,3s)-3-((E)-4-(4-methoxyphenyl)-4-oxobut-2-enamido)cyclobutyl)amino)pyridin-2-yl)amino)-N,N-dimethyl-7H-pyrrolo[2,3-d]pyrimidine-6-carboxamide]
> 10	COc1ccc(C(=O)/C=C/C(=O)N[C@H]2C[C@H](Nc3ccc(Nc4ncc5cc(C(=O)N(C)C)n(C6CCCC6)c5n4)nc3)C2)cc1 [Compound 270, 7-cyclopentyl-2-((5-(((1r,3r)-3-((E)-4-(4-methoxyphenyl)-4-oxobut-2-enamido)cyclobutyl)amino)pyridin-2-yl)amino)-N,N-dimethyl-7H-pyrrolo[2,3-d]pyrimidine-6-carboxamide]
1 to 10	COc1ccc(C(=O)/C=C/C(=O)N2CCN(c3ccc(Nc4ncc5cc(C(=O)N(C)C)n(C6CCCC6)c5n4)nc3)[C@H](C)C2)cc1 [Compound 271, (R,E)-7-cyclopentyl-2-((5-(4-(4-(4-methoxyphenyl)-4-oxobut-2-enoyl)-2-methylpiperazin-1-yl)pyridin-2-yl)amino)-N,N-dimethyl-7H-pyrrolo[2,3-d]pyrimidine-6-carboxamide]
> 10	COc1ccc(C(=O)/C=C/C(=O)N(C)CCN(C)c2ccc(Nc3ncc4cc(C(=O)N(C)C)n(C5CCCC5)c4n3)nc2)cc1 [Compound 272, (E)-7-cyclopentyl-2-((5-((2-(4-(4-methoxyphenyl)-N-methyl-4-oxobut-2-enamido)ethyl)(methyl)amino)pyridin-2-yl)amino)-N,N-dimethyl-7H-pyrrolo[2,3-d]pyrimidine-6-carboxamide]
1 to 10	COc1ccc(C(=O)/C=C/C(=O)N2CCN(c3ccc(Nc4ncc5cc(C(=O)N(C)C)n(C6CCCC6)c5n4)nc3)C[C@H]2C)cc1 [Compound 273, (R,E)-7-cyclopentyl-2-((5-(4-(4-(4-methoxyphenyl)-4-oxobut-2-enoyl)-3-methylpiperazin-1-yl)pyridin-2-yl)amino)-N,N-dimethyl-7H-pyrrolo[2,3-d]pyrimidine-6-carboxamide]
1 to 10	COc1ccc(C(=O)/C=C/C(=O)N2CCN(c3ccc(Nc4ncc5cc(C(=O)N(C)C)n(C6CCCC6)c5n4)nc3)[C@@H](C)C2)cc1 [Compound 274, (S,E)-7-cyclopenty1-2-((5-(4-(4-(4-methoxyphenyl)-4-oxobut-2-enoyl)-2-methylpiperazin-1-yl)pyridin-2-yl)amino)-N,N-dimethyl-7H-pyrrolo[2,3-d]pyrimidine-6-carboxamide]
1 to 10	COc1ccc(C(=O)/C=C/C(=O)N2CCCN(c3ccc(Nc4ncc5cc(C(=O)N(C)C)n(C6CCCC6)c5n4)nc3)CC2)cc1 [Compound 275, (E)-7-cyclopentyl-2-((5-(4-(4-(4-methoxyphenyl)-4-oxobut-2-enoyl)-1,4-diazepan-1-yl)pyridin-2-yl)amino)-N,N-dimethy1-7H-pyrrolo[2,3-d]pyrimidine-6-carboxamide]
1 to 10	COc1ccc(C(=O)/C=C/C(=O)N2CCN(c3ccc(Nc4ncc5cc(C(=O)N(C)C)n(C6CCCC6)c5n4)nc3)C[C@@H]2C)cc1 [Compound 276, (S,E)-7-cyclopentyl-2-((5-(4-(4-(4-methoxyphenyl)-4-oxobut-2-enoyl)-3-methylpiperazin-1-yl)pyridin-2-yl)amino)-N,N-dimethyl-7H-pyrrolo[2,3-d]pyrimidine-6-carboxamide]
> 10	CN(C)C(=O)c1cc2cnc(Nc3ccc(N4CCN(C(=O)/C=C/C(=O)c5ccc(Br)cc5)CC4)cn3)nc2n1C1CCCC1 [Compound 284, (E)-2-((5-(4-(4-(4-bromophenyl)-4-oxobut-2-enoyl)piperazin-1-yl)pyridin-2-yl)amino)-7-cyclopentyl-N,N-dimethyl-7H-pyrrolo[2,3-d]pyrimidine-6-carboxamide]

same assay, conditions: C33A cells, immunoblot

CDK4 degradation, in words	Structure (SMILES)
capable to degrading CDK4	COc1ccc(C(=O)/C=C/C(=O)N2CCN(c3ccc(Nc4ncc5c(C)c(C(C)=O)c(=O)n(C6CCCC6)c5n4)nc3)CC2)cc1 [Compound 136]

tested on: Androgen Receptor; assay: Androgen Receptor Degradation assay, Western blotting; format: cell-based; details: not given
Experimental: as §1, §2, §3

DC50 [µM]	Structure (SMILES)
> 10	COc1ccc(C(=O)/C=C/C(=O)N[C@H]2C[C@H](NC(=O)CN3CCN(c4ccc(C(=O)N[C@H]5CC[C@H](Oc6ccc(C#N)c(Cl)c6)CC5)nn4)CC3)C2)cc1 [Compound 200, N-((1r,4r)-4-(3-chloro-4-cyanophenoxy)cyclohexyl)-6-(4-(2-(((1r,3r)-3-((E)-4-(4-methoxyphenyl)-4-oxobut-2-enamido)cyclobutyl)amino)-2-oxoethyl)piperazin-1-yl)pyridazine-3-carboxamide]
> 10	COc1ccc(C(=O)/C=C/C(=O)N[C@H]2C[C@H](NC(=O)CN3CCN(c4ccc(C(=O)N[C@H]5CC[C@H](Oc6ccc(C#N)c(Cl)c6)CC5)nn4)CC3)C2)c(F)c1 [Compound 201, N-((1r,4r)-4-(3-chloro-4-cyanophenoxy)cyclohexyl)-6-(4-(2-(((1r,3r)-3-((E)-4-(2-fluoro-4-methoxyphenyl)-4-oxobut-2-enamido)cyclobutyl)amino)-2-oxoethyl)piperazin-1-yl)pyridazine-3-carboxamide]
> 10	COc1ccc(C(=O)/C=C/C(=O)N[C@H]2C[C@H](NC(=O)CN3CCN(c4ccc(C(=O)N[C@H]5CC[C@H](Oc6ccc(C#N)c(Cl)c6)CC5)nn4)CC3)C2)c(Cl)c1 [Compound 286, N-((1r,4r)-4-(3-chloro-4-cyanophenoxy)cyclohexyl)-6-(4-(2-(((1r,3r)-3-((E)-4-(2-chloro-4-methoxyphenyl)-4-oxobut-2-enamido)cyclobutyl)amino)-2-oxoethyl)piperazin-1-yl)pyridazine-3-carboxamide]

biological target: T2, Recombinant RNF126 (Homo sapiens, UniProt Q9BV68); assay: RNF126 Binding Assay, gel-based ABPP; details: not given
T2 construct: FLAG (C); host or cells: HEK293T
T2 sequence (Q9BV68 whole entry): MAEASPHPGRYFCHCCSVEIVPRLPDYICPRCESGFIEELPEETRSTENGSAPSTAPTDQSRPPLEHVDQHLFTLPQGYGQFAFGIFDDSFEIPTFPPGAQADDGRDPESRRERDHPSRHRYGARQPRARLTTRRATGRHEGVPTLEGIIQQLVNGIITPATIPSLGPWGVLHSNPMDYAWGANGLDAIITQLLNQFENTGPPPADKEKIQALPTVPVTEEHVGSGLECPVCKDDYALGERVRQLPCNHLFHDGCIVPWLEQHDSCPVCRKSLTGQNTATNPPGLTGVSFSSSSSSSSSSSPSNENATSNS
Experimental: RNF126 mammalian expression plasmid with a C-terminal FLAG tag was purchased from Origene (Origene Technologies Inc., RC204986). The plasmid was transformed into NEB 5-alpha Competent E. coli (DH5) cells (NEB product no. C2987H). The following day, a single transformed colony was used to inoculate 50 ml of nutrient rich LB medium containing kanamycin (50 μg/ml) and was incubated at 37° C. overnight, with agitation (250 rpm). A Miniprep (Qiagen) kit was used to isolate the plasmid before sequence verification with appropriate primers.
HEK293T cells were grown to 30-50% confluency in DMEM supplemented with 10% FBS (Corning) and maintained at 37° C. with 5% CO2. Immediately before transfection, media was replaced with DMEM containing 5% FBS. Each plate was transfected with 24 μg of overexpression plasmid with 24 μL Lipofectamine 3000 (Invitrogen) in Opti-MEM. After 48 h cells were collected in PBS, lysed by sonication, and batch bound with anti-DYKDDDDK resin (GenScript, L00432) for 2 hours. Lysate and resin were washed with PBS and eluted with 133.33 μg/ml 3×FLAG peptide (ApexBio, A6001) in PBS. Five elutions were performed for 15 minutes each. Elutions were concentrated and the protein was stored in PBS. Concentration and purity was determined using the BCA assay and western blotting.
Recombinant RNF126 ([…]) was pre-treated with either DMSO vehicle or covalent ligand at 37° C. for 30 min in 25 μL of PBS, and subsequently treated with of IA-Rhodamine (concentrations designated in figure legends) (Setareh Biotech) at room temperature for 1 h in the dark. The reaction was stopped by addition of 4×reducing Laemmli SDS sample loading buffer (Alfa Aesar). After boiling at 95° C. for 5 min, the samples were separated on precast 4-20% Criterion TGX gels (Bio-Rad). Probe-labeled proteins were analyzed by in-gel fluorescence using a ChemiDoc MP (Bio-Rad).

binding to RNF126 (gel-based ABPP), in words	Structure (SMILES)
maintained binding to RNF126	COc1ccc(C(=O)/C=C/C(=O)N2CCN(c3ccc(Nc4ncc5c(C)c(C(C)=O)c(=O)n(C6CCCC6)c5n4)nc3)CC2)cc1 [Compound 136]
